Test results reported in PMC10762375 (Computational and Structural Biotechnology Journal, 2023).
Where a chain is given by its changes, count along the chain named.

Assays:
rP2X2 WT = molecular target: T1, rP2X2 WT (Rattus norvegicus, UniProt P49653); assay: Conventional whole-cell patch recording of ATP-evoked currents, transfected HEK293 cells; type: cell-based
T1 construct: expressed in transfected cells; host or cells: HEK293
T1 sequence (P49653 1-472): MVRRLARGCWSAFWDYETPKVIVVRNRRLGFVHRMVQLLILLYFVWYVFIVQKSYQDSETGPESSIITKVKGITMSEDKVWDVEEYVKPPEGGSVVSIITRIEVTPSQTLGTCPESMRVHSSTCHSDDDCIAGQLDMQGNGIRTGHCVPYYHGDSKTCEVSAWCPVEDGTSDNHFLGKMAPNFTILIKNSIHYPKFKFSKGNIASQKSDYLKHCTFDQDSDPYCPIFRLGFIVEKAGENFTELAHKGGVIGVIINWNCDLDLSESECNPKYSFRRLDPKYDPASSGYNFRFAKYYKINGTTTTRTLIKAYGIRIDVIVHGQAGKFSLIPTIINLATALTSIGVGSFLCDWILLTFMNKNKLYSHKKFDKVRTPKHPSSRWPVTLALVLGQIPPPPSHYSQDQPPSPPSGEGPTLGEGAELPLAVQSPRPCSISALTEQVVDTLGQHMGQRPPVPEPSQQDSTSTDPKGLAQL
Description: (§1) As we described previously, [41], [42], human embryonic kidney (HEK 293) cells were purchased from Shanghai Institutes for Biological Sciences and cultured in Dulbecco's Modified Eagle Medium supplemented with 10% fetal bovine serum (FBS), 1% penicillin-streptomycin and 1% GlutaMAX™ at 37 °C, 5% CO2 and 95% air in a humidified environment. Plasmids were transfected into cells using transfection agents containing two solutions (Solution A: 250 mM CaCl2 in pure water; Solution B (in mM): 1.5 Na2HPO4, 140 NaCl and 50 HEPES, pH adjusted to 6.96). After mixing 2.5–3 μg of the plasmid and solution A, the mixture was added dropwise to an equal volume of solution B, followed by stirring with a pipette tip. The mixture was left to stabilize at room temperature for 3–5 min and then added to the cell culture dish. After 6 h of transfection, the medium in the culture dish was replaced with fresh medium.
(§2) Nystatin (0.15 mg/mL) was diluted with a high potassium internal solution containing (in mM): 75 K2SO4, 55 KCl, 5 MgSO4, and 10 HEPES (pH 7.4). The ckP2X7 and rP2X2 receptor currents were recorded using conventional whole-cell patch configuration. At 24–48 h after transfection, HEK293 cells were recorded using an Axopatch 200B amplifier (Molecular Devices, USA) at room temperature (25 ± 2 °C), with holding a potential of − 60 mV. Current data were sampled at 10 kHz, filtered at 2 kHz, and analyzed using the PCLAMP 10 software (Molecular Devices, USA). HEK293 cells were bathed in standard extracellular solution (SS) containing (in mM): 150 NaCl, 5 KCl, 2 CaCl2, 1 MgCl2, 10 glucose, and 10 HEPES (pH 7.4, by Tris-base). For conventional whole-cell recordings, the pipette solution consisted of (in mM): 120 KCl, 30 NaCl, 0.5 CaCl2, 1 MgCl2, 5 EGTA, and 10 HEPES (pH 7.4, by Tris-base). ATP and drugs were dissolved in standard extracellular solution and administered with a Y-tube.
(§3) All electrophysiological recordings were analyzed using Clampfit 10.6 (Molecular Devices). Pooled data were expressed as mean and standard error of the mean (s.e.m.). Comparisons between multiple independent groups were performed using one-way ANOVA followed by Dunnett's tests. Comparisons between two groups were made using paired (before and after engineered disulfide bond cross-linking) or unpaired Student’s t tests, as appropriate.

rP2X2 K212A = molecular target: T2, rP2X2 K212A (Rattus norvegicus, UniProt P49653, K212A); assay: as above; type: cell-based
T2 construct: expressed in transfected cells; host or cells: HEK293
T2 sequence (P49653 1-472 K212A): T1 sequence (P49653 1-472) with K212A
Description: as §1, §2, §3

rP2X2 V119W/H120W = molecular target: T3, rP2X2 V119W/H120W (Rattus norvegicus, UniProt P49653, H120W/V119W); assay: as above; type: cell-based
T3 construct: expressed in transfected cells; host or cells: HEK293
T3 sequence (P49653 1-472 V119W/H120W): T1 sequence (P49653 1-472) with V119W, H120W
Description: as §1, §2, §3

ckP2X7 T202W = type: cell-based, chicken
F 174 A mutant of hP2X3 = system: F 174 A mutant of hP2X3; parameters: method as in PMID 24223907; conditions: hP2X3 F174A; cited from earlier work
hP2X3 R204A = molecular target: T4, hP2X3 R204A (Homo sapiens, UniProt P56373, R204A); assay: Nystatin perforated patch recording of ATP-evoked currents, transfected HEK293 cells; type: cell-based
T4 construct: expressed in transfected cells; host or cells: HEK293
T4 sequence (P56373 1-397 R204A): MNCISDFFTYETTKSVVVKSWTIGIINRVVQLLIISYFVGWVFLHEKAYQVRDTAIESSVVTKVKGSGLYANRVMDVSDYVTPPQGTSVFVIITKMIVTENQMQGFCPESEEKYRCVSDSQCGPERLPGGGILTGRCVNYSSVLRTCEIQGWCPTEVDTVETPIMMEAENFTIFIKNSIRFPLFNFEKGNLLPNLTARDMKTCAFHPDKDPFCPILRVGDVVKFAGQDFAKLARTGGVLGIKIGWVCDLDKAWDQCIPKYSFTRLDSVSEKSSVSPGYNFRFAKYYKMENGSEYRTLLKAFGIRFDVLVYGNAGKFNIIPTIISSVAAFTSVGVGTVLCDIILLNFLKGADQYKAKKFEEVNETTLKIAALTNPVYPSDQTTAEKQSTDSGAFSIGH

hP2X3 WT = molecular target: T5, hP2X3 WT (Homo sapiens, UniProt P56373); assay: as above; type: cell-based; conditions: Hill 1 fit
T5 construct: host or cells: HEK293
T5 sequence (P56373 1-397): T4 sequence (P56373 1-397 R204A) with A204R

rP2X3 WT = molecular target: T6, rP2X3 WT (Rattus norvegicus, UniProt P49654); assay: as above; type: cell-based; conditions: Hill 1 fit, mean ± s.e.m.
T6 construct: EGFP (only implied by the anti-EGFP blot of rP2X3 plasmids); expressed in transfected cells; host or cells: HEK293
T6 sequence (P49654 1-397): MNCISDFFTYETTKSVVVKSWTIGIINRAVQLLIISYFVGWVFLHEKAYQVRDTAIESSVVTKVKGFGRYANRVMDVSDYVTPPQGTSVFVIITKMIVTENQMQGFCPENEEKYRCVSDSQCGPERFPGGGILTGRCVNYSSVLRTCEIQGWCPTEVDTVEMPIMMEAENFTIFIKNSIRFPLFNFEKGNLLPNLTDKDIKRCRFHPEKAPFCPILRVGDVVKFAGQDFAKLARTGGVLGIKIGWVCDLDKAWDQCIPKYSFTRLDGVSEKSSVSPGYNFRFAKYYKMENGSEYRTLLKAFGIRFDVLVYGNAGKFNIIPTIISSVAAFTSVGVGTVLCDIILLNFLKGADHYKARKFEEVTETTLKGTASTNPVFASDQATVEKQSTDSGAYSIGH
Description: As we described previously, [41], [42], human embryonic kidney (HEK 293) cells were purchased from Shanghai Institutes for Biological Sciences and cultured in Dulbecco's Modified Eagle Medium supplemented with 10% fetal bovine serum (FBS), 1% penicillin-streptomycin and 1% GlutaMAX™ at 37 °C, 5% CO2 and 95% air in a humidified environment. Plasmids were transfected into cells using transfection agents containing two solutions (Solution A: 250 mM CaCl2 in pure water; Solution B (in mM): 1.5 Na2HPO4, 140 NaCl and 50 HEPES, pH adjusted to 6.96). […]
Nystatin (0.15 mg/mL) was diluted with a high potassium internal solution containing (in mM): 75 K2SO4, 55 KCl, 5 MgSO4, and 10 HEPES (pH 7.4). The ckP2X7 and rP2X2 receptor currents were recorded using conventional whole-cell patch configuration. At 24–48 h after transfection, HEK293 cells were recorded using an Axopatch 200B amplifier (Molecular Devices, USA) at room temperature (25 ± 2 °C), with holding a potential of − 60 mV. Current data were sampled at 10 kHz, filtered at 2 kHz, and analyzed using the PCLAMP 10 software (Molecular Devices, USA). […]
All electrophysiological recordings were analyzed using Clampfit 10.6 (Molecular Devices). Pooled data were expressed as mean and standard error of the mean (s.e.m.). […]

hP2X3 K113A = molecular target: T7, hP2X3 K113A (Homo sapiens, UniProt P56373, K113A); assay: as above; type: cell-based
T7 construct: expressed in transfected cells; host or cells: HEK293
T7 sequence (P56373 1-397 K113A): T4 sequence (P56373 1-397 R204A) with K113A, A204R

rP2X3 K201C/V274C = molecular target: T8, rP2X3 K201C/V274C (Rattus norvegicus, UniProt P49654, K201C/V274C); assay: as above; type: cell-based; conditions: Hill 1 fit
T8 construct: EGFP (only implied by the anti-EGFP blot of rP2X3 plasmids); expressed in transfected cells; host or cells: HEK293
T8 sequence (P49654 1-397 K201C/V274C): T6 sequence (P49654 1-397) with K201C, V274C

For `Nc1ncnc2c1ncn2[C@@H]1O[C@H](COP(=O)(O)OP(=O)(O)OP(=O)(O)O)[C@H]2OC3(O[C@H]21)C([N+](=O)[O-])=CC(=[N+]([O-])[O-])C=C3[N+](=O)[O-]` (stereo partly shown) [TNP-ATP, 2',3'-O-(2,4,6-trinitrophenyl)-ATP], the IC50 (rP2X2 WT) was 3.14 ± 0.95 µM, the IC50 (rP2X2 K212A) was 15.8 ± 2 µM and the “reduction of potency of inhibition by TNP-ATP vs WT” value (rP2X2 K212A; rP2X2 K212A vs rP2X2 WT) was roughly 5 fold. The IC50 (rP2X2 V119W/H120W) was 24.9 ± 5 µM, the “reduction of sensitivity to TNP-ATP inhibition vs WT” value (rP2X2 V119W/H120W; rP2X2 V119W/H120W vs rP2X2 WT) was roughly 8 fold and the “enhancement of apparent affinity of TNP-ATP vs WT” value (ckP2X7 T202W; 1 mM ATP) was “about 38 fold”. The “effect of mutation on inhibition by TNP-ATP” value (F 174 A mutant of hP2X3) was “does not alter the inhibition”.

`Nc1ncnc2c1ncn2[C@@H]1O[C@H](COP(=O)(O)OP(=O)(O)OP(=O)(O)O)[C@@H](O)[C@H]1O` [ATP] showed an EC50 (rP2X2 WT; rP2X2 WT) of 5.39 ± 0.11 µM, an EC50 (rP2X2 K212A; rP2X2 K212A) of 9.83 ± 0.34 µM and an EC50 (rP2X2 V119W/H120W; rP2X2 V119W/H120W) of 221 ± 36 µM. The “reduction in affinity to ATP vs WT” value (ckP2X7 T202W) was “approximately 60 fold”, the EC50 (hP2X3 R204A) was 1.22 ± 0.22 µM and the EC50 (hP2X3 WT) was 0.767 ± 0.099 µM. The EC50 (rP2X3 WT) was 0.832 ± 0.143 µM, the EC50 (hP2X3 K113A) was 0.872 ± 0.232 µM and the EC50 (rP2X3 K201C/V274C) was 12.9 ± 2.7 µM.
